Data taken from patent US7323465B2, “Alkansulfonamides as endothelin antagonists” (Actelion Pharmaceuticals Ltd., priority 2002, dated 2008).
pIC50: −log10 of the molar value.

Key:
[1] = biological target: T1, human recombinant ETA receptors (Homo sapiens, UniProt P25101); test: Inhibition of [125I]ET-1 binding to membranes from CHO cells carrying human ETA receptors
T1 construct: expressed in transfected cells; host or cells: CHO cells (microsomal membranes)
T1 sequence (P25101 21-427): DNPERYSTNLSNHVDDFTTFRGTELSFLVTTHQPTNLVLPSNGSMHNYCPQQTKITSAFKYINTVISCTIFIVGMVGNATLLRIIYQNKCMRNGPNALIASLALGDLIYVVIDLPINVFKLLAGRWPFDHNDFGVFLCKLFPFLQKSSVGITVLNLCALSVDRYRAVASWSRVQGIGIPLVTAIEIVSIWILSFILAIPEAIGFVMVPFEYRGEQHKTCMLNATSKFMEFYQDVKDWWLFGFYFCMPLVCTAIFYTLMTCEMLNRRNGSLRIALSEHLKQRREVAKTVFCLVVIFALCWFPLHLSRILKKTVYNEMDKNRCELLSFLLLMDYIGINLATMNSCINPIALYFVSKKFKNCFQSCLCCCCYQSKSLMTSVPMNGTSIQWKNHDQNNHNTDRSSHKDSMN
Description: (§1) 1) Inhibition of Endothelin Binding to Membranes from CHO Cells Carrying Human ET Receptors:
(§2) For competition binding studies, membranes of CHO cells expressing human recombinant ETA or ETB receptors were used.
(§3) The assay was performed in 200 uL 50 mM Tris/HCl buffer, pH 7.4, including 25 mM MnCl2, 1 mM EDTA and 0.5% (w/v) BSA in polypropylene microtiter plates. […] After 2 h, the membranes were filtered on filterplates containing GF/C filters (Unifilterplates from Canberra Packard S.A. Zürich, Switzerland). To each well, 50 uL of scintillation cocktail was added (MicroScint 20, Canberra Packard S.A. Zürich, Switzerland) and the filter plates counted in a microplate counter (TopCount, Canberra Packard S.A. Zürich, Switzerland).
(§4) All the test compounds were dissolved, diluted and added in DMSO.

[2] = biological target: T2, human recombinant ETB receptors (Homo sapiens, UniProt P24530); test: Inhibition of [125I]ET-1 binding to membranes from CHO cells carrying human ETB receptors
T2 construct: expressed in transfected cells; host or cells: CHO cells (microsomal membranes)
T2 sequence (P24530 27-442): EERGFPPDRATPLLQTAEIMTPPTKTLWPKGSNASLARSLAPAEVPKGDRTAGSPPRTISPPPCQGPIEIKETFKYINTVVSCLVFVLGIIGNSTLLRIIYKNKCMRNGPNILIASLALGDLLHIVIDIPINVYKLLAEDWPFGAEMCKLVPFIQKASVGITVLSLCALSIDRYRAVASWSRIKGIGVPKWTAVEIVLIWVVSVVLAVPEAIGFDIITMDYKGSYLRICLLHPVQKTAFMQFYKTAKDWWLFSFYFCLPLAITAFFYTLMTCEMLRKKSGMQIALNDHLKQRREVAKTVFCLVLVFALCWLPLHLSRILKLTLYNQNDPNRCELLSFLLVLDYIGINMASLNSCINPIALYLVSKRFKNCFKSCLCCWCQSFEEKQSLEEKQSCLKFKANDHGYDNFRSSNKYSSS
Description: as §1, §2, §3, §4
Also: 2.5% DMSO.

| SMILES | pIC50 [1] | pIC50 [2] |
| --- | --- | --- |
| CCS(=O)(=O)Nc1ncnc(OCCOc2ncc(Br)cn2)c1-c1ccc(C)cc1 [Example 1, ethanesulfonic acid {6-[2-(5-bromo-pyrimidin-2-yloxy)-ethoxy]-5-p-tolyl-pyrimidin-4-yl}-amide] | 8.40 | < 6.00 |
| CCS(=O)(=O)Nc1ncnc(OCCOc2ncc(SC)cn2)c1-c1ccc(C)cc1 [Example 2, ethanesulfonic acid {6-[2-(5-methylsulfanyl-pyrimidin-2-yloxy)-ethoxy]-5-p-tolyl-pyrimidin-4-yl}-amide] | 8.22 | 6.00 |
| CCS(=O)(=O)Nc1ncnc(OCCOc2ncc(OC)cn2)c1-c1ccc(C)cc1 [Example 3, ethanesulfonic acid {6-[2-(5-methoxy-pyrimidin-2-yloxy)-ethoxy]-5-p-tolyl-pyrimidin-4-yl}-amide] | 7.42 | < 6.00 |
| CCCS(=O)(=O)Nc1ncnc(OCCOc2ncc(Br)cn2)c1-c1ccc(C)cc1 [Example 4, n-propanesulfonic acid {6-[2-(5-bromo-pyrimidin-2-yloxy)-ethoxy]-5-p-tolyl-pyrimidin-4-yl}-amide] | 8.20 | < 6.00 |
| CCCS(=O)(=O)Nc1ncnc(OCCOc2ncc(SC)cn2)c1-c1ccc(C)cc1 [Example 5, propane-1-sulfonic acid {6-[2-(5-methylsulfanyl-pyrimidin-2-yloxy)-ethoxy]-5-p-tolyo-pyrimidin-4-yl}-amide] | 8.44 | < 6.00 |
| CCCS(=O)(=O)Nc1ncnc(OCCOc2ncc(OC)cn2)c1-c1ccc(C)cc1 [Example 6, propane-1-sulfonic acid {6-[2-(5-methoxy-pyrimidin-2-yloxy)-ethoxy]-5-p-tolyl-pyrimidin-4-yl}-amide] | 7.77 | < 6.00 |
| CCS(=O)(=O)Nc1nc(-c2ncccn2)nc(OCCOc2ncc(Br)cn2)c1Oc1ccccc1OC [Example 7, ethanesulfonic acid [6-[2-(5-bromo-pyrimidin-2-yloxy)-ethoxy]-5-(2-methoxy-phenoxy)-[2,2′]bipyrimidinyl-4-yl]-amide] | 7.79 | – |
| CCCS(=O)(=O)Nc1nc(-c2ncccn2)nc(OCCOc2ncc(Br)cn2)c1Oc1ccccc1OC [Example 8] | 7.96 | – |
| CCCS(=O)(=O)Nc1nc(-c2ncccn2)nc(OCCOc2ncc(SC)cn2)c1Oc1ccccc1OC [Example 9, n-propanesulfonic acid [6-[2-(5-methylsulfanyl-pyrimidin-2-yloxy)-ethoxy]-5-(2-methoxy-phenoxy)-[2,2′]bipyrimidinyl-4-yl]-amide] | 8.28 | 6.73 |
| CCCS(=O)(=O)Nc1nc(-c2ncccn2)nc(OCCOc2ncc(OC)cn2)c1Oc1ccccc1OC [Example 10, n-propanesulfonic acid [6-[2-(5-methoxy-pyrimidin-2-yloxy)-ethoxy]-5-(2-methoxy-phenoxy)-[2,2′]bipyrimidinyl-4-yl]-amide] | 7.37 | 6.16 |
| CCS(=O)(=O)Nc1nc(-c2ncccn2)nc(OCCOc2ncc(SC)cn2)c1Oc1ccccc1OC [Example 11, ethanesulfonic acid [6-[2-(5-methylsulfanyl-pyrimidin-2-yloxy)-ethoxy]-5-(2-methoxy-phenoxy)-[2,2′]bipyrimidinyl-4-yl]-amide] | 8.28 | 7.23 |
| CCS(=O)(=O)Nc1nc(-c2ncccn2)nc(OCCOc2ncc(OC)cn2)c1Oc1ccccc1OC [Example 12, ethanesulfonic acid [6-[2-(5-methoxy-pyrimidin-2-yloxy)-ethoxy]-5-(2-methoxy-phenoxy)-[2,2′]bipyrimidinyl-4-yl]-amide] | 7.23 | 6.33 |
| COc1ccccc1Oc1c(NS(C)(=O)=O)nc(-c2ncccn2)nc1OCCOc1ncc(Br)cn1 [Example 14] | 7.57 | – |
| COc1cnc(OCCOc2nc(-c3ncccn3)nc(NS(C)(=O)=O)c2Oc2ccccc2OC)nc1 [Example 15] | 6.90 | 6.14 |
| COc1ccccc1Oc1c(NS(C)(=O)=O)nc(-c2ncccn2)nc1OCCOc1ncc(SC)cn1 [Example 16] | 7.92 | 7.10 |
| COc1ccccc1Oc1c(NS(C)(=O)=O)ncnc1OCCOc1ncc(Br)cn1 [Example 17] | 7.48 | 6.22 |
| COc1cnc(OCCOc2ncnc(NS(C)(=O)=O)c2Oc2ccccc2OC)nc1 [Example 18] | 6.69 | 6.08 |
| COc1ccccc1Oc1c(NS(C)(=O)=O)ncnc1OCCOc1ncc(SC)cn1 [Example 19] | 7.66 | 6.81 |
| COc1ccccc1Oc1c(NS(C)(=O)=O)ncnc1OCCOc1ncc(S(C)(=O)=O)cn1 [Example 20] | 7.09 | < 6.00 |
| CCCCS(=O)(=O)Nc1nc(-c2ncccn2)nc(OCCOc2ncc(Br)cn2)c1Oc1ccccc1OC [Example 25] | 8.19 | – |
| CCCCS(=O)(=O)Nc1nc(-c2ncccn2)nc(OCCOc2ncc(OC)cn2)c1Oc1ccccc1OC [Example 26] | 7.72 | 6.06 |
| CCCCS(=O)(=O)Nc1nc(-c2ncccn2)nc(OCCOc2ncc(SC)cn2)c1Oc1ccccc1OC [Example 27] | 8.55 | 6.82 |

| SMILES | pIC50 [1] | pIC50 [2] |
| --- | --- | --- |
| CCCCS(=O)(=O)Nc1ncnc(OCCOc2ncc(Br)cn2)c1Oc1cccc(OC)c1 [Example 28] | 8.54 | 6.23 |
| CCCCS(=O)(=O)Nc1ncnc(OCCOc2ncc(OC)cn2)c1Oc1cccc(OC)c1 [Example 29] | 8.08 | 6.40 |
| CCCCS(=O)(=O)Nc1ncnc(OCCOc2ncc(SC)cn2)c1Oc1cccc(OC)c1 [Example 30] | 8.64 | 6.95 |
| CCCCS(=O)(=O)Nc1ncnc(OCCOc2ncc(S(C)(=O)=O)cn2)c1Oc1cccc(OC)c1 [Example 31] | 8.74 | 6.74 |
| CCCS(=O)(=O)Nc1ncnc(OCCOc2ncc(Br)cn2)c1Oc1ccccc1OC [Example 32] | 7.96 | < 6.00 |
| CCCS(=O)(=O)Nc1ncnc(OCCOc2ncc(OC)cn2)c1Oc1ccccc1OC [Example 33] | 7.40 | < 6.00 |
| CCCS(=O)(=O)Nc1ncnc(OCCOc2ncc(SC)cn2)c1Oc1ccccc1OC [Example 34] | 8.19 | 6.80 |
| CCCS(=O)(=O)Nc1ncnc(OCCOc2ncc(S(C)(=O)=O)cn2)c1Oc1ccccc1OC [Example 35] | 7.96 | < 6.00 |
| CCS(=O)(=O)Nc1ncnc(OCCOc2ncc(Br)cn2)c1Oc1ccccc1OC [Example 40] | 7.72 | 6.20 |
| CCS(=O)(=O)Nc1ncnc(OCCOc2ncc(OC)cn2)c1Oc1ccccc1OC [Example 41] | 7.55 | 6.17 |
| CCS(=O)(=O)Nc1ncnc(OCCOc2ncc(SC)cn2)c1Oc1ccccc1OC [Example 42] | 8.24 | 6.98 |
| Cc1ccc(-c2c(NS(C)(=O)=O)ncnc2OCCOc2ncc(Br)cn2)cc1 [Example 47] | 8.54 | < 6.00 |
| COc1cnc(OCCOc2ncnc(NS(C)(=O)=O)c2-c2ccc(C)cc2)nc1 [Example 48] | 7.64 | < 6.00 |
| CSc1cnc(OCCOc2ncnc(NS(C)(=O)=O)c2-c2ccc(C)cc2)nc1 [Example 49] | 8.64 | < 6.00 |
| Cc1ccc(-c2c(NS(C)(=O)=O)ncnc2OCCCOc2ncc(Br)cn2)cc1 [Example 50] | 6.40 | < 6.00 |
| CS(=O)(=O)Nc1ncnc(OCCOc2ncc(Br)cn2)c1-c1ccc(Br)cc1 [Example 53] | 8.96 | 6.08 |
| COc1cnc(OCCOc2ncnc(NS(C)(=O)=O)c2-c2ccc(Br)cc2)nc1 [Example 54] | 7.74 | < 6.00 |
| CSc1cnc(OCCOc2ncnc(NS(C)(=O)=O)c2-c2ccc(Br)cc2)nc1 [Example 55] | 8.89 | 6.34 |
| CS(=O)(=O)Nc1ncnc(OCCOc2ncc(S(C)(=O)=O)cn2)c1-c1ccc(Br)cc1 [Example 56] | 8.80 | 6.44 |
| CS(=O)(=O)Nc1ncnc(OCCOc2ncc(C3CC3)cn2)c1-c1ccc(Br)cc1 [Example 57] | 8.16 | < 6.00 |
| CCCS(=O)(=O)Nc1ncnc(OCCOc2ncc(Br)cn2)c1-c1ccc(Br)cc1 [Example 70] | 9.34 | – |
| CCCCS(=O)(=O)Nc1ncnc(OCCOc2ncc(Br)cn2)c1-c1ccc(Br)cc1 [Example 81] | 9.27 | – |
